19 compounds from patent US10034886B2, “GLP-1 receptor modulators” (Celgene International II SÀRL, priority 2014, dated 2018) can be followed below.

The test deals with T1, GLP-1R (Homo sapiens, UniProt P43220).
T1 construct: host or cells: GLP-1R CRE-bla CHO-K1 cells
As to the kind of experiment: EC20 GLP-1(9-36) PAM cAMP assay: dose response of compound in the presence of fixed concentration of GLP-1(9-36). It counts as cell-based. The following applies: GLP-1R CRE-bla CHO-K1 cells, read-out: EC20 GLP-1(9-36) PAM EC50. Summed up:
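Positive allosteric modulation read as cAMP accumulation: compound titrations (12 points) combined with an EC20 level of GLP-1(9-36) on CHO-K1 GLP-1R CRE-bla cells, IBMX present, 30 min, 37 °C, pH 7.4 buffer. Luminescence converted to cAMP via standards; non-linear fit gave EC50 and Emax.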

Where [1] appears, read: dose response of compound in presence of fixed concentration of GLP-1(9-36).
[2] abbreviates: compound dose response with fixed concentration of GLP-1(9-36).

SMILES strings stand for the structures. Where two headings read alike, the source gives them in different places. Where only a bound is given, the exact number is not on record here.

T1 sequence (P43220 24-463): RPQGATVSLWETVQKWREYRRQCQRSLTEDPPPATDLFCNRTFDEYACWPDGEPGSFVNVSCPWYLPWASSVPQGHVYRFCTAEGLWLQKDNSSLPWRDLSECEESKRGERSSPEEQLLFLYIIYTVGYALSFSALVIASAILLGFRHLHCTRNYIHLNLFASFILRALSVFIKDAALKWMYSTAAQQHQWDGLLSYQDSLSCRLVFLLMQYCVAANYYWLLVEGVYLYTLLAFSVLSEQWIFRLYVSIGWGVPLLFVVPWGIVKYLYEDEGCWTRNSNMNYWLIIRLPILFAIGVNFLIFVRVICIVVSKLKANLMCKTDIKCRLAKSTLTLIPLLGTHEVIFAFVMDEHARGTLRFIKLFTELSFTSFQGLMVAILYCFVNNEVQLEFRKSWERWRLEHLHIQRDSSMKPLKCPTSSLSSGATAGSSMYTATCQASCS
T1 sequence (P01275 100-127 partner limits assumed): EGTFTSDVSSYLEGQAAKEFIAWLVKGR

As a reminder, the EC50 is the concentration that produces a half-maximal response. For the compound `C[C@@H](NC(=O)[C@H](Cc1ccc(-c2ncc(-c3cc(O)cc(OC(F)(F)F)c3)cn2)cc1)NC(=O)c1ccc(C(C)(C)C)s1)C(=O)O` [Compound 1020], under setting [1], the concentration giving a half-maximal response (EC50) lay in the range of 5000 to 10000 nM.
The same measure, in the same setting: the value for `CC(C)CCCOc1ccc(-c2cnc(-c3ccc(C[C@H](NC(=O)c4ccc(C(C)(C)C)cc4)C(=O)NCCC(=O)O)cc3)nc2)cc1` [Compound 458] was 800 to 2500 nM.
Still for that read-out and setting: the value for `CCCCCCCOc1ccc(-c2cnc(-c3ccc(C[C@H](NC(=O)c4ccc(OC)cc4)C(=O)N4CC[C@H](C(=O)O)C4)cc3)nc2)cc1` [Compound 846] was 2500 to 5000 nM.
For the compound `CCCOc1ccc(C(=O)N[C@@H](Cc2ccc(-c3ncc(-c4ccc(OCCCC(C)C)cc4)cn3)cc2)C(=O)N2CC(C(=O)O)C2)cc1` [Compound 1235], the EC50 under setting [2] fell in the range of 2500 to 5000 nM.
For the compound `CC(C)(C)c1ccc(C(=O)N[C@@H](Cc2ccc(-c3ncc(-c4ccc(OC(F)(F)F)cc4)cn3)cc2)C(=O)NC(C(=O)O)C(O)c2ccccc2)s1` (stereo partly shown) [Compound 927], the EC50 under setting [1] fell in the range of 2500 to 5000 nM.
For the compound `CCCCCCCOc1ccc(-c2cnc(-c3ccc(C[C@H](NC(=O)c4ccc(C(C)(C)C)s4)C(=O)NC(C(=O)O)C(O)c4cccnn4)cc3)nc2)cc1` (stereo partly shown) [Compound 915], the EC50 under setting [1] fell in the range of 800 to 2500 nM.
For `CC[C@H]1CC[C@H](c2ccc(-c3cnc(-c4ccc(C[C@@H](NC(=O)c5ccc(C(C)(C)C)s5)C(=O)O)cc4)nc3)cc2)CC1` [Compound 1392], the EC50 under setting [2] was in the range of 800 to 2500 nM.
Same read-out and setting: the value for `CC[C@H]1CC[C@H](c2ccc(-c3ccc(-c4ccc(C[C@H](NC(=O)c5ccc(C(C)(C)C)s5)C(=O)N5CC(C(=O)O)C5)cc4)nc3)cc2)CC1` [Compound 1334] was under 800 nM.
As for `CCCCCCCOc1ccc(-c2cnc(-c3ccc(C[C@H](NC(=O)c4ccc(C(C)(C)C)s4)C(=O)NS(N)(=O)=O)cc3)nc2)cc1` [Compound 421], under setting [1], the EC50 is 800 to 2500 nM.
As for `Cc1cc(-c2cnc(-c3ccc(C[C@H](NC(=O)c4ccc(C(C)(C)C)s4)C(=O)N[C@H](C)C(=O)O)cc3)nc2)ccc1OC(C)C` [Compound 1007], under setting [1], the EC50 fell in the range of 800 to 2500 nM.
In the case of `CCCc1ccc(-c2ccc(-c3cnc(-c4ccc(C[C@H](NC(=O)c5ccc(C(C)(C)C)s5)C(=O)N[C@H](C)C(=O)O)cc4)nc3)cc2)cc1` [Compound 1136], the EC50 under setting [1] lay in the range of 800 to 2500 nM.
With `CCCCCCCOc1ccc(-c2cnc(-c3ccc(C[C@H](NC(=O)c4ccc(C(C)(C)C)s4)C(=O)N4CC(F)(C(=O)O)C4)cc3)nc2)cc1` [Compound 878], the EC50 under setting [1] is under 800 nM.
As to `CCCCCCCOc1ccc(-c2cnc(-c3ccc(C[C@H](NC(=O)c4ccc(C(C)(C)C)s4)C(=O)NC)cc3)nc2)cc1` [Compound 383], the EC50 under setting [1] was 2500 to 5000 nM.
Still for that read-out and setting: the value for `CCCCCCCOc1ccc(-c2cnc(-c3ccc(C[C@H](NC(=O)c4ccc(C(C)C)cc4)C(=O)N4CC[C@H](C(=O)O)C4)cc3)nc2)cc1` [Compound 844] was 800 to 2500 nM; that for `CC[C@H]1CC[C@H](c2ccc(N3CCN(c4ccc(C[C@H](NC(=O)c5ccc(C(C)(C)C)s5)C(=O)N5CC(C(=O)O)C5)cc4)CC3)cc2)CC1` [Compound 1060] was 2500 to 5000 nM.
In the case of `CC(C)CCOc1ccc(-c2cnc(-c3ccc(C[C@H](NC(=O)c4ccc(C(C)(C)C)s4)C(=O)NC(C(=O)O)C(O)c4ccccc4)cc3)nc2)cc1` (stereo partly shown) [Compound 942], the EC50 under setting [1] is 2500 to 5000 nM.
With `CC[C@H]1CC[C@H](c2ccc(-c3cnc(-c4ccc(C[C@H](NC(=O)c5ccc(C(C)(C)C)s5)C(=O)O)cc4)nn3)cc2)CC1` [Compound 1336, (S)-2-(5-(tert-butyl)thiophene-2-carboxamido)-3-(4-(6-(4-((1r,4r)-4-ethylcyclohexyl)phenyl)-1,2,4-triazin-3-yl)phenyl)propanoic acid], under setting [2], the EC50 was in the range of 2500 to 5000 nM.
Consider `CCCCN(Cc1ccc(OC)cc1)S(=O)(=O)c1ccc(-c2cnc(-c3ccc(C[C@H](NC(=O)c4ccc(C(C)(C)C)s4)C(=O)N[C@H](C)C(=O)O)cc3)nc2)cc1` [Compound 1037], for which the EC50 under setting [1] lay in the range of 800 to 2500 nM.
Regarding `CCCCCCCOc1ccc(-c2cnc(-c3ccc(C[C@H](NC(=O)c4ccc(C(C)(C)C)s4)C(=O)N[C@H](C(=O)O)C(C)(C)C)cc3)nc2)cc1` [Compound 620], under setting [1], the EC50 lay within 5000 to 10000 nM.
